Assay [1] has as its target T1, RNA-dependent DNA polymerase activity of HIV reverse transcriptase (Human immunodeficiency virus type 1 group M subtype B, UniProt P04585).
T1 construct: made in house
Nature of the assay: RNA-dependent DNA polymerase activity assay of HIV reverse transcriptase. In kind it is biochemical, HIV-1. Conditions: 10 μM inhibitor concentration, activity with analog / without analog x 100. In outline:
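HIV reverse transcriptase RNA-dependent DNA polymerase activity measured with and without mappicine analogs at 10 μM final. Values are % residual activity: activity with compound divided by activity without, ×100.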

In assay [2] the target is RNase H activity of HIV reverse transcriptase (Human immunodeficiency virus type 1 group M subtype B, UniProt P04585). The experiment in a line: Fluorescence (FRET)-based RNase H activity assay of HIV reverse transcriptase. The class given is biochemical, HIV-1. More on the design: final concentration of 2.5 nM of the p51/p66 RT heterodimer in the assay; made in house. Conditions: 10 μM inhibitor concentration, activity with analog / without analog x 100. In outline: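 p51/p66 HIV-1 RT (usually 2.5 nM) cleaving a 3′-fluorescein RNA/5′-DABCYL DNA hybrid (2.5 μM stock) in 50 mM Tris pH 8.0, 60 mM KCl, 2.5 mM MgCl2, 37 °C; fluorescence rise (ex 490/em 528 nm) read over 3–60 min. Mappicine analogs at 10 μM; % residual activity or % inhibition versus compound-free enzyme.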

19 molecules from patent US20040058948A1, “Mappicine analogs, methods of inhibiting retroviral reverse transcriptase and methods of treating retroviruses” (priority 2002, published 2004) can be followed below.

As for `CCC(O)c1cc2n(c(=O)c1C)Cc1c-2nc2ccc(OC)cc2c1-c1ccccc1` (racemic) [3Dα], the “Residual activity (%) Polymerase” value in assay [1] was found to be 69%. In assay [2], the “Residual activity (%) RNase H” value is 78%.

In the case of `Cc1c(C(O)CCC2CCCCC2)cc2n(c1=O)Cc1c-2nc2ccccc2c1[Si](C)(C)C` (racemic) [5Aδ], the “Residual activity (%) Polymerase” value in assay [1] stood at 83%. In addition, in assay [2], the “Residual activity (%) RNase H” value was 78%.

Consider `CCCCCCc1c2c(nc3ccc(F)cc13)-c1cc(C(=O)CCC3CCCCC3)c(C)c(=O)n1C2` [8Bδκ], for which, in assay [1], the “Residual activity (%) Polymerase” value is given as 80%. Moreover, the “Residual activity (%) RNase H” value in assay [2] is on record as 95%.

For `CCC(=O)c1cc2n(c(=O)c1C)Cc1c-2nc2ccccc2c1[Si](C)(C)C` [5Aακ], the “Residual activity (%) Polymerase” value in assay [1] was found to be 91%. Further, the “Residual activity (%) RNase H” value in assay [2] is 103%.

As to `Cc1ccc2nc3c(c(-c4ccccc4)c2c1)Cn1c-3cc(C(O)C(C)(C)C)c(C)c1=O` (racemic) [3Cβ], the “Residual activity (%) Polymerase” value in assay [1] was determined as 70%. Besides, the “Residual activity (%) RNase H” value in assay [2] came out at 84%.

For `Cc1c(C(O)Cc2ccccc2)cc2n(c1=O)Cc1c-2nc2ccccc2c1[Si](C)(C)C` (racemic) [5Aε], the “Residual activity (%) Polymerase” value in assay [1] stood at 54%. The “Residual activity (%) RNase H” value in assay [2] turned out to be 93%.

Take `CCCCCCc1c2c(nc3ccc(F)cc13)-c1cc(C(O)C(C)(C)C)c(C)c(=O)n1C2` (racemic) [8Bβ]: the “Residual activity (%) Polymerase” value in assay [1] is listed as 50%. Also, the “Residual activity (%) RNase H” value in assay [2] turned out to be 97%.

On to `CCc1c2c(nc3ccccc13)-c1cc(C(O)CC)c(C)c(=O)n1C2` (racemic) [AG 4M], for which the “Residual activity (%) Polymerase” value in assay [1] stood at 100%. For the same molecule, in assay [2], the “Residual activity (%) RNase H” value came out at 74%.

`CCCCCCc1c2c(nc3ccc(OC)cc13)-c1cc(C(=O)CCC3CCCCC3)c(C)c(=O)n1C2` [8Dδκ]: the “Residual activity (%) Polymerase” value in assay [1] was determined as 65%. Moreover, the “Residual activity (%) RNase H” value in assay [2] is 90%.

Regarding `CCCCCCc1c2c(nc3ccc(OC)cc13)-c1cc(C(O)CCC3CCCCC3)c(C)c(=O)n1C2` (racemic) [8Dδ], in assay [1], the “Residual activity (%) Polymerase” value came to 81%. The “Residual activity (%) RNase H” value in assay [2] was determined as 63%.

On to `Cc1c(C(=O)CCC2CCCCC2)cc2n(c1=O)Cc1c-2nc2ccccc2c1[Si](C)(C)C(C)(C)C` [4Aδκ], for which, in assay [1], the “Residual activity (%) Polymerase” value worked out at 39%. Also, the “Residual activity (%) RNase H” value in assay [2] is given as 102%.

For `CCC(O)c1cc2n(c(=O)c1C)Cc1c-2nc2ccc(N)cc2c1[Si](C)(C)C` (centres unmarked) [AG 3M, 2-Amino-7-(1-hydroxypropyl)-8-methyl-12-trimethylsilanyl-11H-indolizino[1,2-b]quinolin-9-one], the remaining activity at 10 µM in assay [1] (read-out: Residual activity (%) Polymerase) turned out to be 123%; in assay [2] (read-out: Residual activity (%) RNase H), 63%.

Turning to `COc1ccc2nc3c(c([Si](C)(C)C)c2c1)Cn1c-3cc(C(=O)CCC2CCCCC2)c(C)c1=O` [5Dδκ], the “Residual activity (%) Polymerase” value in assay [1] is listed as 40%. For the same molecule, the “Residual activity (%) RNase H” value in assay [2] stood at 92%.

With `COc1ccc2nc3c(c([Si](C)(C)C)c2c1)Cn1c-3cc(C(O)Cc2ccccc2)c(C)c1=O` (racemic) [5Dε], the “Residual activity (%) Polymerase” value in assay [1] stood at 48%. Moreover, the “Residual activity (%) RNase H” value in assay [2] worked out at 70%.

Consider `CCCCCCc1c2c(nc3ccc(C)cc13)-c1cc(C(=O)CCC3CCCCC3)c(C)c(=O)n1C2` [8Cδκ], for which the “Residual activity (%) Polymerase” value in assay [1] came out at 79%. Besides, in assay [2], the “Residual activity (%) RNase H” value worked out at 95%.

Regarding `CCCCCCc1c2c(nc3ccccc13)-c1cc(C(O)CC)c(C)c(=O)n1C2` (racemic) [8Aα], the “Residual activity (%) Polymerase” value in assay [1] amounted to 42%. Moreover, the “Residual activity (%) RNase H” value in assay [2] stood at 83%.

Take `CCCCCCc1c2c(nc3ccc(F)cc13)-c1cc(C(O)CC)c(C)c(=O)n1C2` (centres unmarked) [8Bα]: the “Residual activity (%) Polymerase” value in assay [1] is reported as 57%. Besides, the “Residual activity (%) RNase H” value in assay [2] was determined as 80%.

Turning to `CCCCCCc1c2c(nc3ccc(OC)cc13)-c1cc(C(O)Cc3ccccc3)c(C)c(=O)n1C2` (centres unmarked) [8Dε], the “Residual activity (%) Polymerase” value in assay [1] was 73%. The “Residual activity (%) RNase H” value in assay [2] is reported as 82%.

For `Cc1c(C(O)CCC2CCCCC2)cc2n(c1=O)Cc1c-2nc2ccccc2c1[Si](C)(C)C(C)(C)C` (racemic) [4Aδ], the “Residual activity (%) Polymerase” value in assay [1] stood at 45%. Besides, the “Residual activity (%) RNase H” value in assay [2] was 95%.
